Where two headings read alike, the source gives them in different places.
How the values were obtained:
[1] = test system: detached leaf segments of Triticum aestivum cv. Hereward; test: Senescence bioassay on wheat leaf segments in dark conditions; details: Triticum aestivum, foliar, 96 h, read-out: Senescence bioassay (IC50)
Procedure: (§1) Seeds of winter wheat, Triticum aestivum cv. Hereward, were washed under running water for 24 hours and then sown on perlite soaked with Hogland's solution. They were placed in the growth chamber at 25° C. with a 16/8 h light period at 50 μmol·m^−2·s^−1. After 7 days, the first leaf was fully developed and the second leaf had started to grow. A tip section of the first leaf, approximately 4 cm long, was removed from 4 seedlings and trimmed slightly to a combined weight of 100 mg. The basal ends of the four leaf tips were placed into the 96-wells plate containing 150 μL of the tested derivative solution each. The entire plate was inserted into a plastic box lined with paper tissues soaked in distilled water to prevent leaf sections from drying out. After 96 h incubation in the dark at 25° C., the leaves were removed and chlorophyll extracted by heating at 80° C. for 10 min in 5 mL of 80% ethanol (v/v). The sample volume was then restored to 5 mL by the addition of 80% ethanol (v/v). The absorbance of the extract was recorded at 665 nm. In addition, chlorophyll extracts from fresh leaves and leaf tips incubated in deionised water were measured. The results are means of five replicates and the entire test was repeated at least twice. […] The compounds to be tested were dissolved in dimethylsulfoxide (DMSO) and the solution brought up to 10^−3 M with distilled water. […] The IC50 values were determined for standard (BAP) and novel tested compounds.

[2] = test system: detached leaf segments of Triticum aestivum cv. Hereward; test: Senescence bioassay on wheat leaf segments in dark/light conditions; details: foliar, 168 h, read-out: Senescence bioassay (IC50)
Procedure: as §1
The ability of the novel compounds to retard chlorophyll degradation in detached wheat leaves was tested also in the light conditions. The experiment was performed as described in Example 7 with modifications as follows—the incubation of the leaves with the compounds was done in the dark/light conditions 8/16 (light—100 μmol·m^−2·s^−1) at 22° C. for 7 days. […] The newly prepared substituted 1,2,3-thiadiazol-5-yl urea derivatives of the invention are much stronger anti-senescent compounds in comparison to the BAP in retarding senescence under optimal (dark/light) conditions.

[3] = test system: detached leaves of Triticum aestivum cv. Hereward; test: Membrane lipid peroxidation (MDA, TBA method) in detached wheat leaves in the dark; details: for MDA: four days in the dark
Procedure: A typical symptom associated with senescence as a direct consequence of increased reactive oxygen species is membrane lipid peroxidation which produces malondialdehyde (MDA). Therefore the levels of MDA, a decomposition product of lipid peroxidation, were measured in detached wheat leaves that were exposed to the prepared novel derivatives or BAP for four days in the dark as described in Example 7. MDA levels were measured using a thiobarbituric acid (TBA) method. In detail, 100 mg of fresh plant material was homogenized by high speed shaking in a ball mill (MM301, Retsch, Germany) with 1 mL of 70% methanol. The crude extract was centrifuged at 10,000×g for 5 min, and 100 μL aliquot of supernatant was vortexed with 100 μL of 0.5% (w/v) TBA containing 0.1% (w/v) trichloroacetic acid, and the resulting solution was then incubated for 30 min at 95° C. The samples were quickly cooled on ice and centrifuged for 5 min at 1000 g. The absorbance of supernatant was measured at 532 nm with background subtraction at 600 nm and the amount of MDA-TBA complex was calculated from the coefficient of absorbance 155 mM^−1 cm^−1.

[4] = test system: Arabidopsis thaliana (wild-type Col-0); test: Root growth and lateral root formation of Arabidopsis; format: in vivo; details: 10 nM, two weeks after transfer
Procedure: To investigate in vivo effect of the new derivatives on the root growth and development, seeds of Arabidopsis thaliana (wild-type Col-0) were surface sterilized and sown on vertical plates on half-strength Murashige-Skoog medium (supplied with 0.1% sucrose and 6 g/L phytagel) containing 10 nM BAP or 10 nM 1,2,3-thiadiazol-5-yl-urea derivative, or 0.01% DMSO (solvent control). After vernalization (4 days in the dark, 4° C.) plates were transferred into the growth chamber (22° C., 16/8 light/dark). Two weeks after transfer, seedlings were photographed and root elongation and lateral root formation was scored using Scion image software (Scion Corp., Frederick, Md., USA). At least 40 plants were measured for each treatment.

[5] = test system: spring barley (Hordeum vulgare), malting variety Bojos; test: Field experiment, spring barley, pre-soaked seeds; format: in vivo; details: seeds pre-soaked in 50 μM solution
Procedure: Seeds of spring barley (Hordeum vulgare), malting variety Bojos were pre-soaked in 50 μM solution of compound 6 or 65 and sown as described in example 15. For each variant at least 50 plants were used to obtain morphology parameters. Statistical evaluation was executed in stat. program PAST v. 2.17c.

[6] = Toxicity towards human skin fibroblasts (Calcein AM assay); format: cell-based
Procedure: Cytotoxicity of the compounds to human skin fibroblasts (BJ cell line) was determined in a standard Calceinovém AM test. Cells were maintained in plastic tissue culture flasks and grown in Dulbecco's modified Eagle's medium for cell culture (DMEM) at 37° C. in 5% CO2 and 100% humidity. Cells were placed into 96-well microtiter plates (Nunc, Denmark) and after 12 hours pre-incubation, the tested compound was added to a final concentration ranging from […]. Cells were incubated for 72 hours. At the end of incubation period Calcein AM was added in PBS to a final concentration of […]. After 1 hour of incubation fluorescence was measured at 485/538 nm (ex/em wavelength) using Fluoroskan Ascent (Labsystems, Finland). IC50 values (the concentration causing reduction of calcein AM conversion to 50%) were calculated from the curves obtained. All experiments were repeated four times with a maximum deviation of 15%. Due to the limited solubility of substances in water, all the tested compounds were dissolved in DMSO and diluted with water to a final concentration.

wheat leaves = test: Ethylene production (defoliating activity) assay; design: species or system Triticum aestivum; details: 10 μM; for Ethylene produced: 96 h in the dark at 25° C., control 270 (±15)
Procedure: We investigated the effect of the compounds of the invention on ethylene production in wheat leaves. The leaves were obtained as described in Example 8, placed in 5 mL glass vials and immersed at 10 μM solutions of tested compounds of the invention or TDZ. Distilled water was used as a control treatment. After 96 h incubation in the dark at 25° C., 1 mL of air was taken from the vials and content of ethylene in it was determined using gas chromatography with the flame ionization detector (GC-FID) method described by Fišerová et al. (Fišerová H, Kula E, Klemš M, Reinöhl V (2001) Phytohormones as indicators of the degree of damage in birch (Betula pendula). Biológia 56: 405-409).

[7] = dark, 25° C., chlorophyll absorbance 665 nm
[8] = dark/light 8/16, 22° C., 7 days

Row | SMILES | IC50 [1] | IC50 [2] | MDA [3] | Lateral root number [4] | Primary root lenght [4] | grain yield compared to untreated control [5] | CC50 at 72 h ([6]; BJ cell line, 72 hours, read-out: not toxic up to the highest tested concentration (Calcein AM IC50)) | Ethylene produced (wheat leaves) | IC50 [1, 7] | IC50 [2, 8] | CC50 at 72 h [6] | elevation of ethylene production compared to untreated control (wheat leaves; 96 h) | level of membrane lipid peroxidation during dark senescence reduced to ([3]; compared to untreated control)
1 | O=C(NCCCl)Nc1cnns1 [Compound 65, 1-(2-Chloro-ethyl)-3-[1,2,3]thiadiazol-5-yl-urea] | 14000 nM | 700 nM | 16.4 (±0.5) nmol/g FW | 12 (±8) | 36 (±8) mm | 109.0% | > 100000 nM | 335 (±25) nL/g FW |  |  |  |  | 
2 | O=C(NCc1ccco1)Nc1cnns1 [Compound 84, N-furfuryl-N′-1,2,3-thiadiazol-5-yl-urea] |  |  | 12.7 (±1.1) nmol/g FW | 13 (±6) | 30 (±6) mm |  |  | 337 (±28) nL/g FW | 1200 nM | 30 nM | > 100000 nM | 25% | 
3 | COCCNC(=O)Nc1cnns1 [Compound 6, 1-(2-methoxy-ethyl)-3-[1,2,3]thiadiazol-5-yl-urea] |  |  | 9.6 (±0.7) nmol/g FW | 17 (±9) | 48 (±15) mm | 107.3% |  | 275 (±14) nL/g FW | 950 nM | 30 nM | > 100000 nM |  | 44.6%
